Measured values from EP4692096A1, “MACROCYCLIC COMPOUND, AND PHARMACEUTICAL COMPOSITION AND USE THEREOF” (Prime Gene Therapeutics Co., Ltd., priority 2023, dated 2024).
Read-outs that look alike come from different tables or passages of the source. Values belong to the compound of their own block, whether it stands above or below them.

Key:
[1] = Blood-brain penetration test in rats; type: in vivo, Male SD rats; conditions: for Kp at 0.5 h / Kp at 5 min / concentration at 0.5 h: male, SD, rat; for Kp at 0.5 h / Kp at 5 min: brain/plasma; for Kp at 5 min: IV 2 mg/kg, 5 min after administration; for concentration at 0.5 h: 0.5 h after oral administration (PO, 10 mg/kg)
Protocol: Male SD rats were divided into groups of three animals each, which were administered the compounds to be tested either by single oral gavage (PO, 10 mg/kg) or by single intravenous injection (IV, 2 mg/kg). Animals were fasted overnight prior to dosing, beginning 10 hours before administration and continuing until 4 hours after dosing. Rats were sacrificed at 0.5 hours after PO administration (or 5 min after IV administration). Blood and brain tissues were collected. The samples were centrifuged at 4000 rpm for 5 min at 4 °C, and plasma was transferred to centrifuge tubes and stored at -80°C until analysis. Plasma samples were processed by protein precipitation extraction, and the extracts were analyzed by LC/MS/MS.

[2] = target: T1, TYK2-JH2 (Homo sapiens, UniProt P29597); assay: Enzymatic activity (IC50) assay against TYK2-JH2 (fluorescence polarisation, JH2 probe 1); type: binding
T1 construct: Enzymatic activity(IC50) assay of compounds against TYK2-JH2 and JAK1-JH2
T1 sequence (P29597 589-875 limits assumed): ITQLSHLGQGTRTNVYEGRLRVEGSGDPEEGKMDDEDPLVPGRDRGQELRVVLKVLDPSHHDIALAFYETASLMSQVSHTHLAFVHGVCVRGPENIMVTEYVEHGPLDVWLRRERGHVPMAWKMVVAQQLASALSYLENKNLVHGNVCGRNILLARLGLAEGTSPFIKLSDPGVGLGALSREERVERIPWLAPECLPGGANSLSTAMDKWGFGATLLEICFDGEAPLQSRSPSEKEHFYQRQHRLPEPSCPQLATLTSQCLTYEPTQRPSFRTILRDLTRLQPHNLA
Protocol: (§1) Using an Echo liquid handler, 50 nL of the compound to be tested was transferred into a 384-well reaction plate, in duplicate wells for each compound. The plate was subjected to centrifugation at 1000 rpm for 1 min and the final DMSO concentration was 0.5%. Subsequently, 5 µL of TYK2 (or JAK1) was added to the plate, centrifuged at 1000 rpm for 1 min, and incubated at 25 °C for 10 min. Then, 5 µL of JH2 probe 1 was added to the plate, centrifuged at 1000 rpm for 1 min, and incubation at 25 °C for 60 min. FP 520/48 signals were measured using a BMG high-throughput multifunctional plate reader. Data from the TYK2-JH2 assay were analyzed using GraphPad Prism 8 software. […] After calculating inhibition rates, IC50 values (half-maximal inhibitory concentrations) of the control compounds and the compounds to be tested were determined using nonlinear regression fitting of software. [formula] • Datapositive control: mean value of positive control wells • Datanegative control: mean value of negative control wells

[3] = target: T2, JAK1-JH2 (Homo sapiens, UniProt P23458); assay: Enzymatic activity (IC50) assay against JAK1-JH2 (fluorescence polarisation, JH2 probe 1); type: binding
T2 construct: Enzymatic activity(IC50) assay of compounds against TYK2-JH2 and JAK1-JH2
T2 sequence (P23458 583-855 limits assumed): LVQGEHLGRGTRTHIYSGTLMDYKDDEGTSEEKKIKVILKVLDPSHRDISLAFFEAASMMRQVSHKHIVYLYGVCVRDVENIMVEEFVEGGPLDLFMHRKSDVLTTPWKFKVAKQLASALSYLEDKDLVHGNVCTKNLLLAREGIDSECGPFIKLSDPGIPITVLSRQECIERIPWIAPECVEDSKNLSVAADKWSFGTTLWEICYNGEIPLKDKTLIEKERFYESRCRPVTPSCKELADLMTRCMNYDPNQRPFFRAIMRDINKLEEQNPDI
Protocol: as §1

[4] = Pharmacokinetic experiment in rats; type: in vivo, Male SD rats; conditions: for Vd: plasma, iv, 2 mg/kg
Protocol: Male SD rats were divided into groups of three animals each, which were administered the compound of Example 2 by intravenous injection (2 mg/kg), administered the compound of Example 2 by single oral gavage (10 mg/kg), and administered a control compound by single oral gavage (10 mg/kg), respectively. Animals were fasted overnight prior to dosing, beginning 10 hours before administration and continuing until 4 hours after dosing. For the intravenous group, blood samples were collected at 0.0833, 0.25, 0.5, 1, 2, 4, 6, 8, and 24 h post-dose. For the oral administration groups, blood samples were collected at 0.25, 0.5, 1, 2, 4, 6, 8, and 24 h post-dose. Blood samples (0.3 mL) were collected from the retro-orbital venous plexus under isoflurane anesthesia into heparinized tubes. The samples were centrifuged at 4000 rpm for 5 min at 4 °C, and plasma was transferred to centrifuge tubes and stored at -80°C until analysis. Plasma samples were processed by protein precipitation extraction, and the extracts were analyzed by LC/MS/MS. Pharmacokinetic results are shown in Tables 2 and 3: Table 2: Pharmacokinetic parameters of the compound in Example 2 in rat plasma after intravenous administration

[5] = read-out: brain/blood concentration ratio
[6] = male, SD, rat plasma, intravenous injection 2 mg/kg
[7] = male, SD, rat plasma, single oral gavage 10 mg/kg

Compound: [2H]C([2H])([2H])NC(=O)c1nnc(NC(=O)C2CC2)cc1Nc1cccc(-c2ncn(C)n2)c1OC [Deucravacitinib, reference compound]
brain penetration (in words) [1]: very low brain penetration
Kp at 0.5 h ([1]; PO 10 mg/kg, 0.5 hours after administration, read-out: brain/blood concentration ratio): 0.032

Compound: CNc1cc2nc3c(cnn13)C(=O)OC(C)COCc1ccc(OC)c(c1)N2 [Example 2, (R,1^3E,1^4E)-3^6-methoxy-7-methyl-1^7-(methylamino)-5,8-dioxa-2-aza-1(5,3)-pyrazolo[1,5-a]pyrimidin-3(1,3)-benzheterocyclononan-9-one]
IC50 [2]: < 5 nM
IC50 [3]: > 5000 nM
Vd ([4]; male, SD, rat, rat plasma, intravenous injection 2 mg/kg, read-out: Vss): 1.28 L/kg
Vd ([4]; male, SD, rat, rat plasma, intravenous injection 2 mg/kg, read-out: Vz): 1.33 L/kg
AUC(0-inf) [4, 6]: 2030 ng·h/mL
AUC(0-t) [4, 6]: 2020 ng·h/mL
C0 [4, 6]: 2260 ng/mL
MRT [4, 6]: 1.28 h
clearance [4, 6]: 16.7 mL/min/kg
half-life [4, 6]: 0.93 h
AUC(0-inf) [4, 7]: 5780 ng·h/mL
AUC(0-t) [4, 7]: 5770 ng·h/mL
Cmax [4, 7]: 2460 ng/mL
MRT [4, 7]: 1.97 h
Tmax [4, 7]: 0.5 h
half-life [4, 7]: 2.46 h
Bioavialibility ([4]; rat, oral 10 mg/kg vs intravenous 2 mg/kg): 57.1%
oral drug exposure (in words) ([4]; rat, single oral gavage 10 mg/kg): much better than that of the control compounds A and B
brain penetration (in words) [1]: remarkably high brain penetration
brain/blood concentration ratio ([1]; PO 10 mg/kg, 0.5 hours after administration): 508%
concentration at 0.5 h ([1]; brain, read-out: concentration in brain tissue): 2620 ng/mL
Kp at 0.5 h ([1]; 10 mg/kg, 0.5 hours post oral dosing, printed as plain ratio, read-out: brain-blood concentration ratio): 5.08
concentration at 0.5 h ([1]; plasma, read-out: concentration in plamsa): 515 ng/mL

Compound: CNc1cc2nc3c(cnn13)C(=O)O[C@@H]1CCC[C@H]1OCc1cc(c3nnn(C)c3c1)N2 [Example 6, (1^3E,1^4E,6^1R,6^2R)-3^1-methyl-1^7-(methylamino)-3^1H-5,7-dioxa-2-azazo-1(5,3)-pyrazolo[1,5-a]pyrimidine-3(4,6)-benzo[d][1,2,3]triazole-6(1,2)-cyclopentane cyclooctafuran-8-one]
IC50 [2]: < 10 nM
Kp at 5 min [1, 5]: 0.322

Compound: CNc1cc2nn3c(cnc13)C(=O)O[C@H](C)COCc1cc(c(=O)n(C)c1)N2 [Example 7, (1^5E,3^3E,7R)-3^1,7-dimethyl-1^8-(methylamino)-3^1,3^2-dihydro-5,8-dioxa-2-azazo-1(6,3)-imidazo[1,2-b]pyridazine-3(3,5)-pyridine heterocyclononane-3^2,9-dione]
IC50 [2]: < 5 nM
IC50 [3]: > 5000 nM

Compound: CNc1cc2nc3c(cnn13)C(=O)O[C@H](C)COCc1cc(c(=O)n(C)c1)N2 [Example 8, (R,1^3E,1^4E,3^3E)-3^1,7-dimethyl-1^7-(methylamino)-3^1,3^2-dihydro-5,8-dioxa-2-azazo-1(5, 3)-pyrazolo[1,5-a]pyrimidine-3 (3,5)-pyridine heterocyclononane-3^2,9-dione]
IC50 [2]: < 5 nM
IC50 [3]: > 5000 nM

Compound: CNc1cc2nn3c(cnc13)C(=O)N[C@@H]1CCC[C@H]1OCc1cc(c3nnn(C)c3c1)N2 [control compound A, reference compound]
IC50 [2]: < 5 nM
IC50 [3]: > 1000 nM
AUC(0-inf) [4, 7]: 735 ng·h/mL
AUC(0-t) [4, 7]: 592 ng·h/mL
Cmax [4, 7]: 126 ng/mL
MRT [4, 7]: 3.16 h
Tmax [4, 7]: 1.83 h
half-life [4, 7]: 3.07 h
brain penetration (in words) [1]: very low brain penetration
Kp at 5 min [1, 5]: 0.0879

The next lines start with the values.

IC50 [2]: < 5 nM
IC50 [3]: > 5000 nM
Kp at 5 min [1, 5]: 3.15
Compound: CNc1cc2nn3c(cnc13)C(=O)O[C@H](C)COCc1ccc(OC)c(c1)N2 [Example 1, (7R,E)-3^6-methoxy-7-methyl-1^8-(methylamino)-5,8-dioxa-2-aza-1(6,3)-imidazo[1,2-b]pyridazin-3(1,3)-benzocyclononan-9-one]

IC50 [2]: < 20 nM
IC50 [3]: > 5000 nM
Compound: CNc1cc2nn3c(cnc13)C(=O)OC[C@H](C)OCc1ccc(OC)c(c1)N2 [Example 3, (6S, E)-3^6-methoxy-6-methyl-1^8-(methylamino)-5,8-dioxa-2-azazo-1(6,3)-imidazo[1,2-b]pyridazine-3(1,3)-benzheterocyclononan-9-one]

IC50 [2]: < 20 nM
IC50 [3]: > 5000 nM
Compound: CNc1cc2nc3c(cnn13)C(=O)OCC(C)OCc1ccc(OC)c(c1)N2 [Example 4, (S, 1^3E,1^4E)-3^6-methoxy-6-methyl-1^7-(methylamino)-5,8-dioxa-2-azazo-1(5,3)-pyrazolo[1,5-a]pyrimidine-3(1,3)-benzheterocyclononan-9-one]

IC50 [2]: < 5 nM
IC50 [3]: > 5000 nM
Kp at 5 min [1, 5]: 1.21
Compound: CNc1cc2nn3c(cnc13)C(=O)O[C@@H]1CCC[C@@H]1OCc1cc(c3nnn(C)c3c1)N2 [Example 5, (6^1R,6^2R,E)-3^1-methyl-1^8-(methylamino)-3^1H-5,7-dioxa-2-azazo-1(6,3)-imidazo[1,2-b]pyridazine-3(4,6)-benzo[d][1,2,3]triazole-6(1,2)-cyclopentane cyclooctafuran-8-one]

AUC(0-inf) [4, 7]: 332 ng·h/mL
AUC(0-t) [4, 7]: 327 ng·h/mL
Cmax [4, 7]: 192 ng/mL
MRT [4, 7]: 1.63 h
Tmax [4, 7]: 0.5 h
half-life [4, 7]: 1.08 h
Kp at 5 min [1, 5]: 0.228
Compound: CNc1cc2nc3c(cnn13)C(=O)N[C@H](C)COCc1ccc(OC)c(c1)N2 [control compound B, reference compound]
